Source: patent US20130059787A1, “METHODS OF USING HUMAN PROTEIN KINASE C DELTA VIII AS A BIOMARKER” (UNITED STATES DEPARTMENT OF VETERAN AFFAIRS, priority 2010, published 2013)

How the values were obtained:
[1] = tested on: PKCδ promoter; test: pGlow-PKCδ promoter reporter transfected into NT2 cells; type: cell-based, human; settings: RA treatment
Text: Computational analysis of PKCδ promoter indicated putative RAREs. pGlow-PKCδ promoter (gift from Dr. Stuart H. Yuspa, NCI) was transfected into NT2 cells to determine if RA regulates transcription of the PKCδ gene via RARE on the PKCδ promoter region. […] This was verified by western blot analysis using GFP antibody to confirm up-regulation of PKCδ promoter by ATRA treatment.

[2] = tested on: ischemic stroke; settings: RA injections immediately and following ischemia; cited from earlier work
[3] = tested on: APP/PS1 transgenic mice; settings: RA treatment; cited from earlier work
[4] = tested on: SF2/ASF (SRp30a); test: Western blot of NT2 whole cell lysates with specific antibodies; type: cell-based, human; settings: RA about 10 μM, about 24 h; NT2 cells
Description: (§1) FIG. 6 is a series of images illustrating the detection of SR proteins involved in RA-mediated PKXδVIII expression. NT2 cells were treated with RA (about 10 μM) for about 24 h or without RA (control), and Western blot analysis was performed on whole cell lysates using (a) mAb104 antibody that detects all SR proteins and (b) specific antibodies as indicated in the figure. Molecular masses are indicated (kDa).
(§2) Cell lysates (about 40 μg) were separated on 10% SDS-PAGE. […] In apoptotic cells, PARP is cleaved by caspase 3 into an 85 kDa fragment which is detected in addition to the 116 KDa fragment using anti-PARP antibody in western blot analysis. […] (Putt K S, Beilman G J, and H. P J., Direct quantitation of poly(ADP-ribose) polymerase (PARP) activity as a means to distinguish necrotic and apoptotic death in cell and tissue samples. Chembiochem, 2005. 6: p. 53-55)
(§3) (SR) proteins that bind to exonic or intronic splicing enhancers (ESE, ISE) on the pre-mRNA. […] NT2 cells were treated with or without RA (about 24 h), and whole cell lysates were analyzed by Western blot analysis using mAb104 antibody that simultaneously detects the phosphoepitopes on all SR proteins. […]

[5] = tested on: SC35 (SRp30b); test: as above; type: cell-based, human; settings: RA about 10 μM, about 24 h; NT2 cells
Description: as §1, §2, §3

## CC1=C(/C=C/C(C)=C/C=C/C(C)=C/C(=O)O)C(C)(C)CCC1 [RA, all-trans-retinoic acid]
[1]
  fluorescence of pGlow-PKCδ promoter compared to control samples: four-fold increase
[2]
  infarct volume: reduced
[3]
  APP phosphorylation and processing: decreased
  Aβ deposition: decreased
  activation of microglia and astrocytes: decreased
  neuronal degeneration: attenuated
  spatial learning and memory: improved
  tau phosphorylation: decreased
[4]
  SF2/ASF (SRp30a) expression: remained relatively constant
[5]
  SC35 (SRp30b) expression: increase
